According to PubChem BioAssay (NCI):
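A five-concentration, 48-hour dose response in 96-well plates underlies each endpoint, interpolated linearly between surrounding concentrations. GI50 = concentration required for 50% inhibition of growth. At the TGI there is no net growth.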

Assays:
Assay in all cases: NCI-60 cell line screen, 48 h
SK-MEL-2 melanoma = test system: SK-MEL-2 melanoma
COLO 205 colon = test system: COLO 205 colon
EKVX NSCLC = test system: EKVX NSCLC
MCF7 breast = test system: MCF7 breast
MALME-3M melanoma = test system: MALME-3M melanoma
HOP-92 NSCLC = test system: HOP-92 NSCLC
HCC-2998 colon = test system: HCC-2998 colon
SR leukemia = test system: SR leukemia
HCT-116 colon = test system: HCT-116 colon
RPMI-8226 leukemia = test system: RPMI-8226 leukemia

SMILES: Nc1nc2ccc(CNc3ccc(C(=O)NC(CC(=O)O)C(=O)O)cc3)cc2c(=O)[nH]1 (centres undefined)
- GI50 (SK-MEL-2 melanoma): > 100 µM
- TGI (SK-MEL-2 melanoma): > 100 µM
- GI50 (COLO 205 colon): 10.7 µM
- TGI (COLO 205 colon): > 100 µM
- TGI (EKVX NSCLC): > 100 µM
- GI50 (MCF7 breast): 1.2 µM
- TGI (MCF7 breast): > 100 µM
- GI50 (MALME-3M melanoma): > 33.3 µM
- TGI (MALME-3M melanoma): > 100 µM
- GI50 (HOP-92 NSCLC): > 51 µM
- TGI (HOP-92 NSCLC): > 100 µM
- GI50 (HCC-2998 colon): 7.39 µM
- TGI (HCC-2998 colon): > 100 µM
- GI50 (SR leukemia): 0.52 µM
- TGI (SR leukemia): > 100 µM
- GI50 (HCT-116 colon): 0.478 µM
- TGI (HCT-116 colon): > 100 µM
- GI50 (RPMI-8226 leukemia): 9.23 µM
- TGI (RPMI-8226 leukemia): > 100 µM
